According to BigSolDB 2.1:

O=C(O)c1cc(O)c(O)c(O)c1
in water
Details | solubility (mole fraction)
292.18 K | 0.00098
298 K | 0.0011
303.09 K | 0.00142
308.21 K | 0.0019
313.04 K | 0.00244
318.15 K | 0.00328
323.15 K | 0.00427
327.85 K | 0.00523
333.15 K | 0.00693

COc1ccc(C(=O)O)cc1OC
Details | solubility (mole fraction)
in 2-butanone, 278.95 K | 0.0068
in 2-butanone, 283.15 K | 0.0077
in 2-butanone, 287.95 K | 0.0089
in 2-butanone, 293.32 K | 0.0104
in 2-butanone, 298.13 K | 0.012
in 2-butanone, 303.15 K | 0.014
in 2-butanone, 308.37 K | 0.0162
in 2-butanone, 313.05 K | 0.0184
in 2-butanone, 318.15 K | 0.0212
in 2-butanone, 323.49 K | 0.0246
in ethanol, 278.15 K | 0.0035
in ethanol, 282.93 K | 0.0042
in ethanol, 288.21 K | 0.0051
in ethanol, 293.08 K | 0.0062
in ethanol, 298 K | 0.0074
in ethanol, 303.33 K | 0.0093
in ethanol, 307.9 K | 0.011
in ethanol, 313.3 K | 0.0136
in ethanol, 317.15 K | 0.0161
in ethanol, 323.3 K | 0.0203
in ethyl acetate, 278.3 K | 0.0037
in ethyl acetate, 283.01 K | 0.0044
in ethyl acetate, 288.05 K | 0.0052
in ethyl acetate, 293.15 K | 0.0061
in ethyl acetate, 298 K | 0.0072
in ethyl acetate, 303.13 K | 0.0083
in ethyl acetate, 308.07 K | 0.0099
in ethyl acetate, 313.15 K | 0.0116
in ethyl acetate, 318.06 K | 0.0133
in ethyl acetate, 323.37 K | 0.0157
in isobutanol, 277.9 K | 0.0015
in isobutanol, 283.25 K | 0.002
in isobutanol, 288.15 K | 0.0026
in isobutanol, 293.04 K | 0.0032
in isobutanol, 298.15 K | 0.0041
in isobutanol, 302.94 K | 0.0052
in isobutanol, 308.1 K | 0.0066
in isobutanol, 313.15 K | 0.0083
in isobutanol, 318.01 K | 0.0105
in isobutanol, 323.33 K | 0.0132
in isopropanol, 278.37 K | 0.0024
in isopropanol, 283.05 K | 0.003
in isopropanol, 288.39 K | 0.0039
in isopropanol, 294.07 K | 0.0051
in isopropanol, 299 K | 0.0063
in isopropanol, 303.17 K | 0.0074
in isopropanol, 308.27 K | 0.0095
in isopropanol, 313.13 K | 0.0118
in isopropanol, 318.15 K | 0.015
in isopropanol, 323.2 K | 0.0183
in methyl acetate, 278.3 K | 0.0042
in methyl acetate, 283.01 K | 0.0049
in methyl acetate, 288.05 K | 0.0058
in methyl acetate, 293.15 K | 0.0068
in methyl acetate, 298 K | 0.008
in methyl acetate, 303.13 K | 0.0095
in methyl acetate, 308.07 K | 0.0111
in methyl acetate, 313.15 K | 0.0131
in methyl acetate, 318.06 K | 0.0152
in methyl acetate, 323.37 K | 0.0177
in n-butanol, 277.9 K | 0.0025
in n-butanol, 283.25 K | 0.003
in n-butanol, 288.15 K | 0.0037
in n-butanol, 293.04 K | 0.0046
in n-butanol, 298.15 K | 0.0057
in n-butanol, 302.94 K | 0.007
in n-butanol, 308.1 K | 0.0089
in n-butanol, 313.15 K | 0.011
in n-butanol, 318.01 K | 0.0134
in n-butanol, 323.33 K | 0.0168
in n-propanol, 278.37 K | 0.0027
in n-propanol, 283.05 K | 0.0033
in n-propanol, 288.39 K | 0.0042
in n-propanol, 293.3 K | 0.0051
in n-propanol, 299 K | 0.0066
in n-propanol, 303.17 K | 0.0079
in n-propanol, 308.27 K | 0.0097
in n-propanol, 313.13 K | 0.0118
in n-propanol, 318.15 K | 0.0146
in n-propanol, 323.2 K | 0.0177
